From patent US11759462B2, “Spirocyclic compounds as tryptophan hydroxylase inhibitors” (priority 2013, dated 2023)
pIC50: −log10 of the molar value.

What follows are compounds tested against T1, Recombinant human TPH1 (MBP tagged) (Homo sapiens, UniProt P17752) (assay: TPH1 in vitro inhibition assay (kinetic fluorescence)). Settings: TPH1 Range (TPH1 inhibition IC50).
T1 construct: cloning full length human TPH1 cDNA in to a bacterial pMAL-c5E expression vector; made in house; host or cells: E. coli BL21 (DE3)
T1 sequence (P17752 1-444): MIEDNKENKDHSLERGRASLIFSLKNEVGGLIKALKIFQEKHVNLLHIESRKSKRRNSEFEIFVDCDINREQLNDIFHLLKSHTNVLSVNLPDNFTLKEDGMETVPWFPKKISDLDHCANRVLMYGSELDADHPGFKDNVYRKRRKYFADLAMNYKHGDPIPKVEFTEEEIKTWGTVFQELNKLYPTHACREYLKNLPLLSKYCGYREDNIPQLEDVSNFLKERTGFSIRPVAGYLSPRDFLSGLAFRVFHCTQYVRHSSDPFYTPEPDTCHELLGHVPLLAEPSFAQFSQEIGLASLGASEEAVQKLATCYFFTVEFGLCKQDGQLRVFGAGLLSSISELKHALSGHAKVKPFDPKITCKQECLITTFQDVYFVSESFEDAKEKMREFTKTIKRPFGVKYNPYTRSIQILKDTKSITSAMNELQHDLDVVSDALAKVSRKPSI
Format: biochemical
Outline: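 Final mix: 15 nM MBP-TPH1, 30 μM Trp, 36 μM 6-methyltetrahydropterin, 25 μM ferrous ammonium sulfate, 50 mM MES pH 7.1, 1% DMSO, room temperature.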

Row | Compound | pIC50
1 | COc1ccc(-c2ccc([C@@H](Oc3cc(N4CCC5(CC4)CN[C@H](C(=O)O)C5)nc(N)n3)C(F)(F)F)c(-n3ccc(C)n3)c2)cc1 [Example 1bm, (S)-8-(2-amino-6-((R)-2,2,2-trifluoro-1-(4′-methoxy-3-(3-methyl-1H-pyrazol-1-yl)-[1,1′-biphenyl]-4-yl)ethoxy)pyrimidin-4-yl)-2,8-diazaspiro[4.5]decane-3-carboxylic acid] | > 7.30
2 | Nc1nc(O[C@H](c2ccc(Cl)cc2-c2cc(F)cc(F)c2)C(F)(F)F)cc(N2CCC3(CC2)CN[C@H](C(=O)O)C3)n1 [Example 34au, (S)-8-(2-amino-6-((R)-1-(5-chloro-3′,5′-difluoro-[1,1′-biphenyl]-2-yl)-2,2,2-trifluoroethoxy)pyrimidin-4-yl)-2,8-diazaspiro[4.5]decane-3-carboxylic acid] | > 7.30

Same assay, conditions: read-out: TPH1 Range (TPH1 inhibition IC50)

Row | Compound | pIC50
3 | Nc1nc(O[C@H](c2ccc(-c3ccc4ccccc4c3)cc2)C(F)(F)F)cc(N2CCC3(CC2)CN[C@H](C(=O)O)C3)n1 [Example 55m, (S)-8-(2-amino-6-((R)-2,2,2-trifluoro-1-(4-(naphthalen-2-yl)phenyl)ethoxy)pyrimidin-4-yl)-2,8-diazaspiro[4.5]decane-3-carboxylic acid] | > 7.30
4 | COc1ncc(-c2ccc([C@@H](Oc3cc(N4CCC5(CC4)CN[C@H](C(=O)O)C5)nc(N)n3)C(F)(F)F)c(-n3ccc(C)n3)c2)cn1 [Example 1r, (S)-8-(2-amino-6-((R)-2,2,2-trifluoro-1-(4-(2-methoxypyrimidin-5-yl)-2-(3-methyl-1H-pyrazol-1-yl)phenyl)ethoxy)pyrimidin-4-yl)-2,8-diazaspiro[4.5]decane-3-carboxylic acid] | > 7.30
5 | CS(=O)(=O)c1ccc(-c2ccc([C@@H](Oc3cc(N4CCC5(CC4)CN[C@H](C(=O)O)C5)nc(N)n3)C(F)(F)F)cc2)cc1 [Example 55di, (S)-8-(2-amino-6-((R)-2,2,2-trifluoro-1-(4′-(methylsulfonyl)-[1,1′-biphenyl]-4-yl)ethoxy)pyrimidin-4-yl)-2,8-diazaspiro[4.5]decane-3-carboxylic acid] | 6.52 to 7.30
6 | Cc1ccn(-c2cc(Cl)ccc2[C@@H](Oc2cc(Oc3ccccc3)nc(N3CCC4(CC3)CNC(C(=O)O)C4)n2)C(F)(F)F)n1 (stereo partly drawn) [Example 46, 8-(4-((R)-1-(4-chloro-2-(3-methyl-H-pyrazol-1-yl)phenyl)-2,2,2-trifluoroethoxy)-6-phenoxypyrimidin-2-yl)-2,8-diazaspiro[4.5]decane-3-carboxylic acid] | 5.00 to 5.52
7 | CC(C)Oc1ccc(-c2ccc([C@@H](Oc3cc(N4CCC5(CC4)CN[C@H](C(=O)O)C5)nc(N)n3)C(F)(F)F)cc2)cc1 [Example 55bv, (S)-8-(2-amino-6-((R)-2,2,2-trifluoro-1-(4′-isopropoxy-[1,1′-biphenyl]-4-yl)ethoxy)pyrimidin-4-yl)-2,8-diazaspiro[4.5]decane-3-carboxylic acid] | 5.52 to 6.52
8 | CC(C)(C)c1ccc(-c2ccc([C@@H](Oc3cc(N4CCC5(CC4)CN[C@H](C(=O)O)C5)nc(N)n3)C(F)(F)F)cc2)cc1 [Example 55ci, (S)-8-(2-amino-6-((R)-1-(4′-(tert-butyl)-[1,1′-biphenyl]-4-yl)-2,2,2-trifluoroethoxy)pyrimidin-4-yl)-2,8-diazaspiro[4.5]decane-3-carboxylic acid] | 5.52 to 6.52
9 | COc1ccc(-c2ccc([C@@H](Oc3cc(N4CCC5(CC4)CN[C@H](C(=O)O)C5)nc(N)n3)C(F)(F)F)cc2)cc1 [Example 55aq, (S)-8-(2-amino-6-((R)-2,2,2-trifluoro-1-(4′-methoxy-[1,1′-biphenyl]-4-yl)ethoxy)pyrimidin-4-yl)-2,8-diazaspiro[4.5]decane-3-carboxylic acid] | 6.52 to 7.30
10 | CN(C)Cc1ccccc1-c1ccc([C@@H](Oc2cc(N3CCC4(CC3)CN[C@H](C(=O)O)C4)nc(N)n2)C(F)(F)F)cc1 [Example 55by, (S)-8-(2-amino-6-((R)-1-(2′-((dimethylamino)methyl)-[1,1′-biphenyl]-4-yl)-2,2,2-trifluoroethoxy)pyrimidin-4-yl)-2,8-diazaspiro[4.5]decane-3-carboxylic acid] | 5.52 to 6.52
11 | Nc1nc(O[C@H](c2ccc(Cl)cc2-c2ccc(Cl)c(C(F)(F)F)c2)C(F)(F)F)cc(N2CCC3(CC2)CN[C@H](C(=O)O)C3)n1 [Example 34am, (S)-8-(2-amino-6-((R)-1-(4′,5-dichloro-3′-(trifluoromethyl)-[1,1′-biphenyl]-2-yl)-2,2,2-trifluoroethoxy)pyrimidin-4-yl)-2,8-diazaspiro[4.5]decane-3-carboxylic acid] | 6.52 to 7.30
12 | CS(=O)(=O)c1ccc([C@@H](Oc2cc(N3CCC4(CC3)CN[C@H](C(=O)O)C4)nc(N)n2)C(F)(F)F)c(-c2ccccc2)c1 [Example 54d, (S)-8-(2-amino-6-((R)-2,2,2-trifluoro-1-(5-(methylsulfonyl)-[1,1′-biphenyl]-2-yl)ethoxy)pyrimidin-4-yl)-2,8-diazaspiro[4.5]decane-3-carboxylic acid] | 6.52 to 7.30
13 | CCOC(=O)c1cccc(-c2ccc([C@@H](Oc3cc(N4CCC5(CC4)CN[C@H](C(=O)O)C5)nc(C)n3)C(F)(F)F)c(-n3ccc(C)n3)c2)c1 [Example 29e, (S)-8-(6-((R)-1-(3′-(ethoxycarbonyl)-3-(3-methyl-1H-pyrazol-1-yl)-[1,1′-biphenyl]-4-yl)-2,2,2-trifluoroethoxy)-2-methylpyrimidin-4-yl)-2,8-diazaspiro[4.5]decane-3-carboxylic acid] | 6.52 to 7.30
14 | (S)-8-(2-amino-6-((R)-2,2,2-trifluoro-1-(3′,4,5′- trifluoro-[1,1′-biphenyl]-4-yl)ethoxy)pyrimidin-4- yl)-2,8-diazaspiro[4.5]decane-3-carboxylic acid [Example 55co] | 6.52 to 7.30
15 | Cc1ccc(-c2cc(Cl)ccc2[C@@H](Oc2cc(N3CCC4(CC3)CN[C@H](C(=O)O)C4)nc(N)n2)C(F)(F)F)cc1 [Example 34bx, (S)-8-(2-amino-6-((R)-1-(5-chloro-4′-methyl-[1,1′-biphenyl]-2-yl)-2,2,2-trifluoroethoxy)pyrimidin-4-yl)-2,8-diazaspiro[4.5]decane-3-carboxylic acid] | 6.52 to 7.30
16 | CCCOC(=O)c1ccc([C@@H](Oc2cc(N3CCC4(CC3)CN[C@H](C(=O)O)C4)nc(N)n2)C(F)(F)F)c(-n2ccc(C)n2)c1 [Example 18b, (S)-8-(2-amino-6-((R)-2,2,2-trifluoro-1-(2-(3-methyl-1H-pyrazol-1-yl)-4-(propoxycarbonyl)phenyl)ethoxy)pyrimidin-4-yl)-2,8-diazaspiro[4.5]decane-3-carboxylic acid] | > 7.30
17 | CCc1ccc(-c2ccc([C@@H](Oc3cc(N4CCC5(CC4)CN[C@H](C(=O)O)C5)nc(N)n3)C(F)(F)F)cc2)cc1 [Example 55bz, (S)-8-(2-amino-6-((R)-1-(4′-ethyl-[1,1′-biphenyl]-4-yl)-2,2,2-trifluoroethoxy)pyrimidin-4-yl)-2,8-diazaspiro[4.5]decane-3-carboxylic acid] | 6.52 to 7.30
18 | Nc1nc(O[C@H](c2ccc(Cl)cc2-c2cnccn2)C(F)(F)F)cc(N2CCC3(CC2)CN[C@H](C(=O)O)C3)n1 [Example 34cu, (S)-8-(2-amino-6-((R)-1-(4-chloro-2-(pyrazin-2-yl)phenyl)-2,2,2-trifluoroethoxy)pyrimidin-4-yl)-2,8-diazaspiro[4.5]decane-3-carboxylic acid] | > 7.30
19 | C/C=C/c1ccc(-c2cccc(S(C)(=O)=O)c2)c([C@@H](Oc2cc(N3CCC4(CC3)CN[C@H](C(=O)O)C4)nc(N)n2)C(F)(F)F)c1 [Example 50, (S)-8-(2-Amino-6-((R)-2,2,2-trifluoro-1-(3′-(methylsulfonyl)-4-((E)-prop-1-en-1-yl)-[1,1′-biphenyl]-2-yl)ethoxy)pyrimidin-4-yl)-2,8-diazaspiro[4.5]decane-3-carboxylic acid] | 6.52 to 7.30
20 | Nc1nc(O[C@H](c2cc(Br)ccc2Br)C(F)(F)F)cc(N2CCC3(CC2)CN[C@H](C(=O)O)C3)n1 [Example 48, (S)-8-(2-Amino-6-((R)-1-(2,5-dibromophenyl)-2,2,2-trifluoroethoxy)pyrimidin-4-yl)-2,8-diazaspiro[4.5]decane-3-carboxylic acid] | 5.52 to 6.52
21 | COC(=O)c1ccc(-c2ccc([C@@H](Oc3cc(N4CCC5(CC4)CN[C@H](C(=O)O)C5)nc(N)n3)C(F)(F)F)cc2)cc1OC(C)=O [Example 55ad, (S)-8-(6-((R)-1-(3′-acetoxy-4′-(methoxycarbonyl)-[1,1′-biphenyl]-4-yl)-2,2,2-trifluoroethoxy)-2-aminopyrimidin-4-yl)-2,8-diazaspiro[4.5]decane-3-carboxylic acid] | 6.52 to 7.30
22 | CN1CCN(c2cccc(-c3cc(Cl)ccc3[C@@H](Oc3cc(N4CCC5(CC4)CN[C@H](C(=O)O)C5)nc(N)n3)C(F)(F)F)c2)C1=O [Example 34p, (S)-8-(2-amino-6-((R)-1-(5-chloro-3′-(3-methyl-2-oxoimidazolidin-1-yl)-[1,1′-biphenyl]-2-yl)-2,2,2-trifluoroethoxy)pyrimidin-4-yl)-2,8-diazaspiro[4.5]decane-3-carboxylic acid] | 6.52 to 7.30
23 | Cc1ccn(-c2cc(Br)ccc2[C@@H](Oc2cc(N3CCC4(CC3)CN[C@H](C(=O)O)C4)nc(N)n2)C(F)(F)F)n1 [Example 10m, (S)-8-(2-amino-6-((R)-1-(4-bromo-2-(3-methyl-1H-pyrazol-1-yl)phenyl)-2,2,2-trifluoroethoxy)pyrimidin-4-yl)-2,8-diazaspiro[4.5]decane-3-carboxylic acid] | > 7.30
